Experiment [1] deals with autophagy in mice tissues. The experiment can be described thus: Autophagy induction in tissues of fed mice (LC3 lipidation, p62, GFP-LC3 dots). It is filed as in vivo. The procedure:
C57BL/6 mice (Charles River Laboratory, Lentilly, France) were bred and maintained according to both the FELASA and the Animal Experimental Ethics Committee Guidelines (Val de Marne, France). Mice were housed in a temperature-controlled environment with 12 h light/dark cycles and received food and water ad libitum. For HC-related experiments, mice were injected intraperitoneally with a single 100 mg/kg dose and 6 h later were sacrificed and tissues were immediately frozen in liquid nitrogen. For DCA- and DMKG-related experiments, mice were subjected to 24 h starvation and injected intraperitoneally each 8 h with a 100 mg/kg of either DCA or DMKG solution prepared in PBS. After 24 h of starvation, mice were sacrificed and tissues were immediately frozen in liquid nitrogen after extraction and homogenized two cycles for 20 s at 5,500 rpm using Precellys 24 tissue homogenator (Bertin Technologies, Montigny-le-Bretonneux, France) in a 20 mM Tris buffer (pH 7.4) containing 150 mM NaCl, 1% Triton X-100, 10 mM EDTA and Complete® protease inhibitor cocktail (Roche Applied Science). Tissue extracts were then centrifuged at 12,000 g at 4° C. and supernatants were collected. Protein concentration in the supernatants was evaluated by the bicinchoninic acid technique (BCA protein assay kit, Pierce Biotechnology, Rockford, Ill.). For hydroxycitrate-related weight-loss experiments, autophagy-deficient Atg4b^−/− mice were used. Atg4b^−/− mice have been previously described (Mariño et al., 2010). For HC-, spermidine-, and resveratrol-related experiments (tumour growth) mice were intraperitoneally injected with respectively 100 mg/kg, 50 mg/kg and 100 mg/kg doses at day 8 and day 9. At day 9, mice were intraperitoneally injected with 2 mg/kg single dose of Mitoxanthrone. For starvation related experiment (tumour growth) mice were treated as previously described (Fabrizio et. al., 2010).
To avoid post-mortem autophagy induction, dead mice were immediately perfused with 4% paraformaldehyde (w:v in PBS, pH 7.4). Tissues were then harvested and further fixed with the same solution for at least 4 h, followed by treatment with 15% sucrose (w:v in PBS) for 4 h and with 30% sucrose (w:v in PBS) overnight. Tissue samples were embedded in Tissue-Tek OCT compound (Sakura Finetechnical Co. Ltd., Tokyo, Japan) and stored at −70° C. Five μm-thick tissue sections were prepared with a CM3050 S cryostat (Leica Microsystems GmbH, Wetzlar, Germany), air-dried for 1 h, washed in PBS for 5 min, dried at RT for 30 min, and mounted with VECTASHIELD anti-fading medium. In each organ, the number of GFP-LC3 dots was counted in five independent visual fields from at least five mice using a TCS SP2 confocal fluorescence microscope (Leica Microsystems GmbH).
Six weeks old female C57BL/6, Balb/c and nude athymic mice (Harlan Laboratory, Gannat, France) were bred and maintained according to both the FELASA and the Animal Experimental Inserm Ethics Committee Guidelines (project: 2012-69). Mice were housed in a temperature-controlled environment with 12 h light/dark cycles and received food and water ad libitum. For tumor growth experiments, procedures adopted are described as follows: 3×10^5 tumor cells were subcutaneously inoculated; when tumors became palpable (day −1 before chemotherapy), mice were first intraperitoneally injected with 100 mg/kg Potassium Hydroxycitrate, 10 mg/kg Acetylsalicylic Acid, 30 mg/kg SB204990, 30 mg/kg c646, 5 mg/kg Rapamycin, 25 mg/kg Resveratrol, 50 mg/kg Spermidine. At day 0, mice were intraperitoneally injected with the abovementioned compounds and with 5.17 mg/Kg Mitoxanthrone or 5 mg/kg Oxaliplatin. Tumor size was measured every two days. For starvation experiments, mice underwent 48 hour fasting followed by intreperitoneal injection of chemotherapeutics. […]

The test system of another experiment is KRas-induced lung cancer. Description: KRas-induced lung cancer (AdCre inhalation). The class given is in vivo, mice. The procedure:
Atg5fl/fl mice were kindly given by Dr Noboru Mizushima. LSL-K-rasG12D;Atg5fl/fl mice were obtained as described in^7. In all experiments, only littermate mice were used as controls. All mice were maintained according to the ethical animal licence protocol complying with the Austrian and European legislation. All experiments were approved by Bundesministerium for Wissenschaft and Forschung, Austria (BMWF-66.015/0013-II/3b/2012).
Inhalation of 6-8-week-old mice with AdCre viruses was performed as previously reported (REF). In brief, experimental animals were anaesthetized with 10% Ketasol/Xylasol and placed on a heated pad. An AdCre-CaCl2 precipitate was produced by mixing […], 2.5 ml AdCre (1010 p.f.u. ml_1; University of Iowa, Gene Transfer Vector Core Iowa, USA) and 0.6 ml CaCl2 (1 M) for each mouse and incubated for 20 min at room temperature. One week after AdCre inhalation, mice were administered with 900 mg/kg HC per body weight in drinking water for 5 weeks and tumors lesions were evaluated by immunohistochemistry.
For KRas-induced lung cancers hisology, […] sections from at least three different planes were cut and stained with haematoxylin and eosin. Sections were scanned using a Mirax slide scanner and lung/tumour areas were automatically scored by an algorithm programmed and executed using the Definiens software suite and visually analyzed in a double blinded fashion. Immunhistochemical staining was performed by automatic staining machine (Leica Bond3) or manually processed. Sections were dehydrated and antigenic epitopes were retrieved using a 10-mM citrate buffer and microwaving for 10 min. Specimen were then incubated with rabbit polyclonal anti-Foxp3 (eBioscience, 13-5773, :100), anti-CD3E (Santa Cruz, 101442, 1:100). Primary Ab staining was detected by peroxidase conjugated anti-rabbit IgG (DAKO, P0448, 1:500). Positive cells were counted on 20 randomly chosen tumour areas at _400 magnifications in a double blinded fashion. Quantitative analysis was performed using HistoQuest software (TissueGnostics GmbH, Vienna, Austria; http://www.tissuegnostics.com).

Experiment [2] concerns MPA/DMBA induced mammary tumors. Description: MPA/DMBA induced mammary tumor. The class given is in vivo, mice. As for the experimental part:
Six-week-old female Balb/c mice underwent surgical implantation of slow-release MPA (Medroxyprogesterone Acetate) pellets (50 mg, 90-day release; Innovative Research of America) subcutaneously on the right flank. 200 uL of 5 mg/mL DMBA (Dimethylbenzantracene)
(Sigma Aldrich) dissolved in Corn Oil was administered by oral gavage six times during 8 weeks. Tumor formation was monitored by palpation. When tumors became palpable, mice were assigned to following groups of treatment: PBS, HCA, MTX, MTX plus HCA and the MTX plus HCA upon CD4/CD8 lymphocytes depletion. Combinatorial groups were treated as previously described, whereas for CD4/CD8 depletion, mice were intraperitoneally administrated with 500 μg of anti CD4 and CD8 antibodies the day before the onset of the treatment.

Entries after “also recorded” stand apart in the source; their conditions may differ. Where two headings read alike, the source gives them in different places.

For the molecule `CC1=NN(c2ccc(C(=O)O)cc2)C(=O)/C1=C\c1ccc(-c2cc(C)c(C)cc2[N+](=O)[O-])o1` [c646], the “autophagy in vivo (LC3 lipidation, p62, GFP-LC3)” value in experiment [1] is “elicits autophagy in mice muscle after 6 hours; also recorded: induced autophagy both in vitro, in cultured cells, and in vivo, in mice”.

On to `O=C(O)CC(O)(C(=O)O)C(O)C(=O)O` (stereo not shown) [HC, hydroxycitrate], for which the “autophagy (LC3 dots) in KRas induced lung adenocarcinomas” value in the experiment with KRas-induced lung cancer (Atg5fl/+ tumors) is reported as “induced autophagy in KRas induced lung adenocarcinomas”. Also, the “Foxp3+ regulatory T cells in tumor bed” value with KRas-induced lung cancer (KRas;Atg5fl/+ mice) was “reduces CD3+ FOXP3 Regulatory T cells in tumor bed; also recorded: reduced the density of tumor infiltration by lymphocytes expressing the Treg marker Foxp3”. In addition, in the experiment with KRas-induced lung cancer (KRas;Atg5fl/+ mice, 5 weeks in drinking water), the “number and size of tumor lesions” value is “reduces tumor size and lesions; also recorded: reduced the number and size of Ad-Cre-induced tumor lesions”. In the experiment with KRas-induced lung cancer (KRas;Atg5fl/+ tumors), the “ratio between CD8+ and Foxp3+ lymphocytes” value is “improvement in the ratio between CD8^+ and Foxp3^+ lymphocytes”. Moreover, in the experiment with KRas-induced lung cancer (Rag2−/− mice, data not shown), the “lung cancers in mice without adaptive immunity” value is recorded as “had no positive effect on lung cancers evolving in Rag2^−− mice”. In experiment [2] (Kaplan-Meier), the “survival, combined with MTX” value is “significantly increased survival”. The “mammary tumor growth and survival, combined with MTX, T cell depleted” value in experiment [2] (depletion of CD4 and CD8 T lymphocytes) is on record as “Beneficial effect of combinatorial treatment is lost”. In addition, the “mammary tumor growth, combined with MTX” value in experiment [2] (mice capable of T-cell dependent immune response) is reported as “significantly diminish tumor growth; also recorded: unless they were combined”. For the same molecule, the “mammary tumor growth, monotherapy” value in experiment [2] (mouse, in vivo) is “had little effect”. The “autophagy in vivo (LC3 lipidation, p62, GFP-LC3)” value is “induced an increase in autophagic flux in vivo; also recorded: strongly stimulated autophagy both in vitro and in vivo; also recorded: triggered a systemic autophagic response comparable to that induced by starvation; also recorded: similarly efficient as a starvation period of 48 h” in experiment [1]; “elicits autophagy in mice muscle after 6 hours” in experiment [1] (listed as Hydroxycitrate); “triggered a systemic autophagic response comparable to that induced by starvation” in experiment [1] (listed as hydroxycitrate).

(Values after patent US11040052B2, “Methods and pharmaceutical compositions for modulating autophagy in a subject in need thereof” (INSERM (INSTITUT NATIONAL DE LA SANTE ET DE LA RECHERCHE …, priority 2013, dated 2021).)
